Source: a melting point compilation (Tetko et al.; mined from patent text by program, amines drawn as free bases though some values may be those of a salt)

First: Fc1ccc(-c2cn([C@H]3CN4CCC3CC4)nn2)cc1F
Second: NCC1CN(c2c(F)cc3c(=O)c(C(=O)O)cn(C4CC4)c3c2F)C1
The melting point of the first is lower: 122 °C for the first, 190 to 195 °C for the second.

Compared with `CC(C)(C)c1cc(O)cc(C(C)(C)C)c1C=C1SC(NCO)=NC1=O`, `CCc1[nH]cnc1-c1cc(C(C)(C)C)c(O)c(C(C)(C)C)c1` is higher in melting point: 177 to 179 °C for the first, 200 to 201 °C for the second.

First: COc1cc2[nH]c3c(c2cc1OC)CC(=CC1CCN(Cc2ccccc2)CC1)C3=O
Second: COc1cc(/C=C2/C(=O)N(C)C(=O)/C2=C/c2ccccc2)cc(OC)c1OC
The melting point of the first is higher: 244 to 245 °C for the first, 131 to 133 °C for the second.

First: O=C(O)c1ccc(COCc2csc3nc(C(=O)NCc4cccc(Br)c4)[nH]c(=O)c23)cc1
Second: Cc1cccc(Cl)c1C(=O)N[C@@H](Cc1ccc(-c2c(C(F)(F)F)cc(C)n(C)c2=O)cc1)C(=O)O
The melting point of the first is higher: 231 to 233 °C for the first, 220 to 223 °C for the second.

First: CCCCCCc1nc2c(N)nc3ccccc3c2n1CCCCNC(=O)Nc1ccccc1
Second: Cc1cc(NC(=O)Nc2ccc(N(CCCl)CCCl)cc2)cc(Nc2c3ccccc3nc3ccccc23)c1
The melting point of the first is lower: 170 to 172 °C for the first, 280 to 285 °C for the second.

Going from `Cn1c2ccc(Br)cc2c2cc(C(=O)N3CCOCC3)sc21` to `COc1ccc2oc(=O)c(-c3ccccc3)c(OCCN3CCOCC3)c2c1`, the melting point falls from 184 °C to 118 °C.

Compared with `O=C(CCc1cccc2[nH]ccc12)c1ccccc1OCC1CO1` (stereo not given), `CC(=O)Nc1c(C(=O)c2ccccc2)[nH]c2cc(C)ccc12` is higher in melting point: 72 °C for the first, 136 to 138 °C for the second.

First: N#Cc1nn(-c2ccc(C=O)cc2)nc1-c1ccccc1
Second: CC(C)NC(=O)c1nc(-c2ccccc2)c(-c2ccc(=O)n(C)n2)s1
The melting point of the first is lower: 111 to 115 °C for the first, 154 °C for the second.

First: COC(=O)Nc1nc2cc(C)[nH]c2c(=O)[nH]1
Second: COC(=O)NC1=NCC(c2ccccc2)N1C (stereo not given)
The melting point of the first is higher: 234 to 236 °C for the first, 145 to 147 °C for the second.

First: O=C(Nc1nc(C(O)C(=O)O)cs1)OCC(Cl)(Cl)Cl (stereo not given)
Second: Cc1ccccc1CC(C(=O)O)C(=O)O
The melting point of the first is higher: 135 to 136 °C for the first, 132 to 135 °C for the second.

First: COC(=O)C(=Cc1cc(OC)cc(OC)c1)c1ccc(Oc2ccc(CBr)cc2)cc1
Second: COC(=O)C1CN(C(=O)COc2ccccc2)c2ccccc2CN1S(=O)(=O)c1ccc(OC)cc1 (stereo not given)
The melting point of the first is lower: 79 to 81 °C for the first, 151 to 153 °C for the second.

First: O=C(CBr)c1cc2ccccc2[nH]1
Second: CCCOc1ccccc1-c1nc(NCCO)cc(=O)[nH]1
The melting point of the first is lower: 125 to 130 °C for the first, 164 to 166 °C for the second.

First: O=C(N[C@H]1CCN(C(=O)c2cc(C(F)(F)F)cc(C(F)(F)F)c2)[C@H](Cc2ccc(Cl)cc2)C1)c1cc(O)nc2ccccc12
Second: COC(=O)CCCCOc1ccc(CNC(=O)C2Cc3ccccc3N2S(=O)(=O)c2ccc(-c3cccc(C(F)(F)F)c3)cc2)cc1 (stereo not given)
The melting point of the first is higher: 222 to 224 °C for the first, 50 °C for the second.

First: Cc1c2c(nc3ccccc13)CCN(C(N)=S)CC2
Second: N=C(N)NOc1nccc2ccccc12
The melting point of the first is higher: 218 °C for the first, 162 to 164 °C for the second.

Compared with `CCn1ncc2c(O)c(C(=O)O)c(CCc3ccccc3)nc21`, `COc1ccc(S(=O)(=O)C(CCCCc2ccccc2)(CC(=O)O)c2ccccc2)cc1` (stereo not given) is lower in melting point: 160 to 161 °C for the first, 75 to 78 °C for the second.

Compared with `CCCNC(=O)NCCCCN1CCC(CNC(=O)c2cc(Cl)c(N)cc2OC)CC1`, `CCOC(=O)CC[C@H](NC(=O)c1ccc(C(CO)CC2CNc3nc(NC(=O)C(C)(C)C)nc(O)c3C2)cc1)C(=O)OCC` (stereo not given in full) is higher in melting point: 114 to 115 °C for the first, 133 to 135 °C for the second.

Compared with `OC1(c2ccc3c(c2)OCO3)CCN(CCc2ccccc2)CC1`, `CN1CCC2(c3ccccc3)OC2C1` (stereo not given) is lower in melting point: 123 to 125 °C for the first, 44 to 45 °C for the second.

Compared with `CC#CCOc1ccc(S(=O)(=O)NC)cc1`, `CSc1nn2c(N(C)C)cc(C)nc2c1S(=O)(=O)c1ccc(C(C)C)cc1` is higher in melting point: 78 to 80 °C for the first, 222 to 224 °C for the second.

Compared with `CN(C)c1nc(Nc2cc(C(=O)NC3CCC3)n[nH]2)c2occc2n1`, `CCNC(=O)c1ccccc1Nc1nc(Nc2ccc3c(c2)C(C)(C)CNC(=O)C3)ncc1Cl` is higher in melting point: 250 °C for the first, 261 to 262 °C for the second.

First: C=CC(C)(C)C1=C(O)C(=O)c2ccccc2C1=O
Second: CN1Cc2c(C#CC(C)(C)O)ncn2-c2ccccc2C1=O
The melting point of the first is lower: 60 °C for the first, 168 to 169 °C for the second.

First: Cc1nnc(-c2ccc3occ(-c4ccc(SCc5ccccc5)cc4)c3c2)o1
Second: COc1ccc(-c2nc(-c3ccccc3)c(N(c3ccccc3)c3ccccc3)s2)cc1
The melting point of the first is higher: 158 to 159 °C for the first, 152 to 155 °C for the second.

Compared with `CSc1cc(Nc2cccc(C)c2)c(S(=O)(=O)NC(C)(C)C)cn1`, `CCc1cc(Oc2cccnc2)c(S(C)(=O)=O)cc1C(=O)N=C(N)N` is higher in melting point: 178 °C for the first, 219 to 223 °C for the second.

First: NCCCN1CC=C(c2ccc(Cl)cc2)CC1
Second: COc1ccc(Cl)cc1-n1c(-c2ccc(C(F)(F)F)cc2)n[nH]c1=S
The melting point of the first is lower: 57 to 58 °C for the first, 275 to 280 °C for the second.

First: COc1ccc(CCN(C)CCOc2ccc(NC(=O)c3cccc4c(=O)c5cccc(OC)c5[nH]c34)cc2)cc1OC
Second: CN=C(O)c1c(Sc2ccc(OC)cc2)c(Sc2ccc(OC)cc2)c(Sc2ccc(OC)cc2)c(Sc2ccc(OC)cc2)c1C(=O)O
The melting point of the first is higher: 190 °C for the first, 168 to 170 °C for the second.

First: CCN(CC)C(=S)Oc1cccnc1F
Second: CCOC(=O)COc1cc(F)ccc1C(=S)NCc1cccc([N+](=O)[O-])c1
The melting point of the first is lower: 52 to 54 °C for the first, 118 °C for the second.

First: CCOC(=O)c1ccc(/C=C(\C)c2ccc3c(c2)C(C)(C)C(=O)CC3(C)C)cc1
Second: O=C(O)c1ccc2oc([N+](=O)[O-])c(-c3ccccc3)c2c1
The melting point of the first is lower: 173 to 174 °C for the first, 271 to 273 °C for the second.

First: COc1ccccc1C1=C(C#N)C(c2ccccc2OC)c2c[nH]nc2N1 (stereo not given)
Second: CCN1Cc2ccccc2P1(=O)c1ccccc1 (stereo not given)
The melting point of the first is higher: 220 °C for the first, 94 to 95 °C for the second.

Compared with `CCC1(O)C(=O)OCc2c1cc1n(c2=O)Cc2cc3cc(O)ccc3nc2-1` (stereo not given), `Cc1ccc2c3c(ccc2n1)OC[C@H](CN1CCC(Oc2ccc4c(c2)NC(=O)CO4)CC1)O3` is lower in melting point: 230 to 235 °C for the first, 149 to 150 °C for the second.

Compared with `OCc1ccc(-c2ccccc2-c2nnnn2C(c2ccccc2)(c2ccccc2)c2ccccc2)cc1`, `Cc1oc(-c2ccccc2)nc1COc1ccc(COc2nn(Cc3ccccc3)cc2CC(=O)O)cn1` is lower in melting point: 167 °C for the first, 87 to 88 °C for the second.

First: O[C@@H]1C(Cl)=CCC[C@@H]1O
Second: CC12CCC(C(=NO)C1=NN)C(C)(C)O2 (stereo not given)
The melting point of the first is lower: 111 to 112 °C for the first, 138 to 142 °C for the second.

Compared with `N#Cc1cnn(-c2ccc(Cl)cc2Cl)c1NN`, `N#Cc1ccc(-c2csc(N3C(=O)OC[C@H]3CF)n2)cc1` is lower in melting point: 199 to 204 °C for the first, 195 to 196 °C for the second.

First: C=CC1OC(=O)c2c(Oc3nc(OC)cc(OC)n3)cccc21 (stereo not given)
Second: COc1cc(O)c(C(=O)C=Cc2sccc2C)c(OC)c1
The melting point of the first is lower: 94 to 97 °C for the first, 124 °C for the second.

First: O=S(=O)(c1ccc(F)cc1)C(c1cc(F)ccc1F)c1cc(NCCO)ncc1Cl (stereo not given)
Second: O=C(c1ccc(F)cc1)C1CCN(CC2CSc3ccc(F)cc3C2)CC1 (stereo not given)
The melting point of the first is higher: 157 to 158 °C for the first, 98 to 102 °C for the second.

Compared with `CC(C)(C)OC(=O)[C@@H]1CS[C@H](c2ccccc2-c2ccccc2)N1C(=O)CNC(=O)Nc1cccc(CC(=O)O)c1`, `COc1ccc(CC2=Cc3ncccc3Nc3cccnc32)cc1` is lower in melting point: 128 °C for the first, 124 to 127 °C for the second.

Compared with `Cn1nnc2ccc3nc(O)c(O)nc3c21`, `Cc1cc(SC2=C(O)CC(CCC3CCCC3)(C3CCCC3)OC2=O)c(C(C)(C)C)cc1CO` (stereo not given) is lower in melting point: over 300 °C for the first, 68 to 71 °C for the second.
